Data set [1] can be described thus: The drug is tested on Collinsella aerofaciens strain: ATCC25986 for biotransformation. The drug concentrations were measured before and after a 12-h incubation by liquid-chromatography-coupled mass spectrometry (LC–MS). The following applies: 2 µM.
Data set [2] in a line: The drug is tested on Alistipes indistinctus strain: DSM22520 for biotransformation. The drug concentrations were measured before and after a 12-h incubation by liquid-chromatography-coupled mass spectrometry (LC–MS). Particulars: 2 µM.
Data set [3] in a line: The drug is tested on Bacteroides caccae strain: ATCC43185 for biotransformation. The drug concentrations were measured before and after a 12-h incubation by liquid-chromatography-coupled mass spectrometry (LC–MS). Particulars: 2 µM.
A short description of data set [4]: The drug is tested on Bacteroides dorei strain: DSM17855 for biotransformation. The drug concentrations were measured before and after a 12-h incubation by liquid-chromatography-coupled mass spectrometry (LC–MS). The following applies: phocaeicola dorei, 2 µM.
Data set [5] in a line: The drug is tested on Bacteroides finegoldii strain: DSM17565 for biotransformation. The drug concentrations were measured before and after a 12-h incubation by liquid-chromatography-coupled mass spectrometry (LC–MS). Particulars: 2 µM.
Data set [6] in a line: The drug is tested on Bacteroides fragilis strain: HMW610 for biotransformation. The drug concentrations were measured before and after a 12-h incubation by liquid-chromatography-coupled mass spectrometry (LC–MS). Particulars: 2 µM.
Data set [7] in a line: The drug is tested on Bacteroides sp. WH2 strain: WH2 for biotransformation. The drug concentrations were measured before and after a 12-h incubation by liquid-chromatography-coupled mass spectrometry (LC–MS). The following applies: bacteroides sp. wh2, 12 h, 2 µM.
A short description of data set [8]: The drug is tested on Anaerococcus hydrogenalis strain: DSM7454 for biotransformation. The drug concentrations were measured before and after a 12-h incubation by liquid-chromatography-coupled mass spectrometry (LC–MS). The following applies: 2 µM.
Data set [9] in a line: The drug is tested on Blautia luti strain: DSM14534 for biotransformation. The drug concentrations were measured before and after a 12-h incubation by liquid-chromatography-coupled mass spectrometry (LC–MS). The format is ADME. More on the design: dose 2 uM, timepoint 0 vs 12 hours. Particulars: 2 µM.
Data set [10] can be described thus: The drug is tested on Coprococcus comes strain: ATCC27758 for biotransformation. The drug concentrations were measured before and after a 12-h incubation by liquid-chromatography-coupled mass spectrometry (LC–MS). More on the design: dose 2 uM, timepoint 0 vs 12 hours. The following applies: 2 µM. In kind it is ADME.
Data set [11] is described as follows: The drug is tested on Eubacterium rectale strain: ATCC33656 for biotransformation. The drug concentrations were measured before and after a 12-h incubation by liquid-chromatography-coupled mass spectrometry (LC–MS). Particulars: agathobacter rectalis, 2 µM.
Data set [12] in a line: The drug is tested on Ruminococcus gnavus strain: ATCC29149 for biotransformation. The drug concentrations were measured before and after a 12-h incubation by liquid-chromatography-coupled mass spectrometry (LC–MS). Particulars: mediterraneibacter gnavus, 2 µM.
For data set [13] the following is noted: anaerostipes sp., 12 h, 2 µM.
Description: The drug is tested on Anaerostipes sp. strain: fecal isolate for biotransformation. The drug concentrations were measured before and after a 12-h incubation by liquid-chromatography-coupled mass spectrometry (LC–MS)
The conditions of data set [14]: enterocloster bolteae, 12 h, 2 µM.
Description: The drug is tested on Clostridium bolteae strain: ATCCBAA-613 for biotransformation. The drug concentrations were measured before and after a 12-h incubation by liquid-chromatography-coupled mass spectrometry (LC–MS)
Data set [15] is described as follows: The drug is tested on Bifidobacterium ruminantium strain: fecal isolate for biotransformation. The drug concentrations were measured before and after a 12-h incubation by liquid-chromatography-coupled mass spectrometry (LC–MS). The following applies: 2 µM.
Data set [16] is described as follows: The drug is tested on Bacteroides fragilis strain: HMW615 for biotransformation. The drug concentrations were measured before and after a 12-h incubation by liquid-chromatography-coupled mass spectrometry (LC–MS). The following applies: 2 µM.
Data set [17] is described as follows: The drug is tested on Clostridium ramosum strain: DSM1402 for biotransformation. The drug concentrations were measured before and after a 12-h incubation by liquid-chromatography-coupled mass spectrometry (LC–MS). The following applies: thomasclavelia ramosa, 2 µM.
Data set [18] in a line: The drug is tested on Ruminococcus torques strain: ATCC27756 for biotransformation. The drug concentrations were measured before and after a 12-h incubation by liquid-chromatography-coupled mass spectrometry (LC–MS). The format is ADME. On the set-up: dose 2 uM, timepoint 0 vs 12 hours. The following applies: 2 µM.
Data set [19] can be described thus: The drug is tested on Edwardsiella tarda strain: ATCC23685 for biotransformation. The drug concentrations were measured before and after a 12-h incubation by liquid-chromatography-coupled mass spectrometry (LC–MS). The following applies: 2 µM.

Turning to `CCN(CC)C(C)CN1c2ccccc2Sc2ccccc21` (stereo unspecified) [ETHOPROPAZINE], the “Bacterial Biotransformation” value is “Compound NOT metabolized” in [1]; “Compound NOT metabolized” in data set [2]; “Compound metabolized” in data set [3]; “Compound metabolized” in [4]; “Compound NOT metabolized” in data set [5]; “Compound NOT metabolized” in data set [6]. The “Bacterial Biotransformation” value in data set [7], in [8], in data set [9], in [10], in data set [11] and in data set [12] was “Compound NOT metabolized” in each case. The “Bacterial Biotransformation” value in [13] and in data set [14] was “Compound NOT metabolized” in each case.
In the case of `CCOC(=O)[C@H](CCc1ccccc1)N[C@@H](C)C(=O)N1CCC[C@H]1C(=O)O.O=C(O)/C=C\C(=O)O` [ENALAPRIL MALEATE], the “Bacterial Biotransformation” value in [15], in [1], in data set [3], in [5], in data set [16] and in data set [7] was “Compound NOT metabolized” in each case. The “Bacterial Biotransformation” value in data set [8], in [9], in data set [17], in data set [10], in [11] and in [12] was “Compound NOT metabolized” throughout. Also, the “Bacterial Biotransformation” value in data set [18], in [19], in [13] and in data set [14] was “Compound NOT metabolized” throughout.
In the case of `CN1CCN2c3ccccc3Cc3ccccc3C2C1` (stereo unspecified) [MIANSERIN], the “Bacterial Biotransformation” value in data set [15], in data set [1], in data set [3], in data set [4], in data set [5] and in data set [6] was “Compound NOT metabolized” each time. Further, the “Bacterial Biotransformation” value in [16], in data set [7], in data set [8], in [9], in data set [17] and in [10] was “Compound NOT metabolized” in each case. Moreover, the “Bacterial Biotransformation” value in [11], in data set [12], in data set [18], in data set [19], in data set [13] and in data set [14] was “Compound NOT metabolized” each time.
As for `CC(C)c1c(CN(C)C(C)Cc2ccccc2)n(C)n(-c2ccccc2)c1=O` (stereo unspecified) [FAMPROFAZONE], the “Bacterial Biotransformation” value is reported as “Compound metabolized” in data set [1]; “Compound NOT metabolized” in data set [2]; “Compound NOT metabolized” in data set [3]; “Compound metabolized” in data set [4]; “Compound metabolized” in data set [5]; “Compound metabolized” in data set [6]. For the same compound, the “Bacterial Biotransformation” value in data set [7] is given as “Compound metabolized”; in [8], “Compound metabolized”; in [9] it was “Compound NOT metabolized”; in data set [10], “Compound NOT metabolized”; in data set [11] it was “Compound NOT metabolized”; in data set [12], “Compound NOT metabolized”. Further, the “Bacterial Biotransformation” value in [18] is given as “Compound NOT metabolized”; in data set [19] it was “Compound metabolized”; in [13], “Compound metabolized”; in data set [14], “Compound metabolized”.
Regarding `COc1ccc2cc([C@H](C)C(=O)O)ccc2c1` [NAPROXEN], the “Bacterial Biotransformation” value was “Compound NOT metabolized” in data set [1]; “Compound NOT metabolized” in [3]; “Compound NOT metabolized” in data set [4]; “Compound metabolized” in data set [6]; “Compound metabolized” in data set [16]; “Compound NOT metabolized” in data set [8]. In addition, the “Bacterial Biotransformation” value in data set [9], in [10], in data set [11], in data set [12], in data set [18] and in data set [19] was “Compound NOT metabolized” each time. The “Bacterial Biotransformation” value in data set [13] and in data set [14] was “Compound NOT metabolized” in each case.
Regarding `CN1CCc2c(c3ccccc3n2Cc2ccccc2)C1.CN1CCc2c(c3ccccc3n2Cc2ccccc2)C1.O=S(=O)(O)c1cccc2c(S(=O)(=O)O)cccc12`, the “Bacterial Biotransformation” value in [15], in data set [1], in data set [3], in [4], in [5] and in data set [6] was “Compound NOT metabolized” throughout. Besides, the “Bacterial Biotransformation” value in [16], in data set [7], in data set [8], in [9], in data set [17] and in [10] was “Compound NOT metabolized” in each case. Moreover, the “Bacterial Biotransformation” value in data set [11], in [12], in [18], in data set [19], in data set [13] and in data set [14] was “Compound NOT metabolized” each time.
For the compound `CN1CCC(OC(c2ccccc2)c2ccccc2)CC1`, the “Bacterial Biotransformation” value is reported as “Compound metabolized” in [15]; “Compound NOT metabolized” in data set [1]; “Compound NOT metabolized” in data set [2]; “Compound NOT metabolized” in [3]; “Compound NOT metabolized” in data set [4]; “Compound NOT metabolized” in [5]. Moreover, the “Bacterial Biotransformation” value in data set [7], in [8], in data set [9], in data set [10], in data set [11] and in data set [12] was “Compound NOT metabolized” each time. The “Bacterial Biotransformation” value in data set [18], in data set [19] and in data set [13] was “Compound NOT metabolized” throughout.

These data come from ChEMBL document CHEMBL5303573, “Mapping human microbiome drug metabolism by gut bacteria and their genes” (Nature, 2019).
